Patent publication US9801949B2, “Combinations of albumin-based drug delivery systems” (KTB TUMORFORSCHUNGSGESELLSCHAFT MBH, priority 2012, dated 2017)
Marks after values point to notes of the source that are not given here. Numbered stars: 1 amine (or outer) side, 2 acyl side, 3 side chain; on linkers, the order of the positions; unused ones are H or OH. Square brackets hold non-standard residues; d marks the D form. Side chains are listed from the residue outwards. Peptide text beside a SMILES is read from it. * marks the point of attachment. DAMPA = CN(Cc1cnc2nc(N)nc(N)c2n1)c1ccc(C(=O)*)cc1; Hexanoyl(6-maleimido) = O=C1C=CC(=O)N1CCCCCC(=O)*; γGlu = O=C(O)[C@H](CCC(=O)[*:2])N[*:1]

How the values were obtained:
[1] = system: MiaPaCa-2 pancreatic carcinoma xenograft; conditions: for antitumor efficacy (in words): MiaPaCa-2 xenograft, up to end of experiment (day 43), doses as in Table 1; for Tumor volume (day 43): s.c. MiaPaCa-2 xenografts, i.v. on days 10, 17, 24, dose per Table 1, median initial tumor volume 0.062 cm^3; for toxic death: 7 mice per group, i.v. on days 10, 17, 24, dose per Table 1
Description: In vivo efficacy studies in the MiaPaCa-2 xenograft model were carried out with doxorubicin, the 6-maleimidocaproyl(hydrazone) derivative of doxorubicin (DOXO-EMCH), the albumin-binding prodrug of methotrexate AW054, a combination of the 6-maleimidocaproyl(hydrazone) derivative of doxorubicin (DOXO-EMCH) and the albumin-binding prodrug of methotrexate AW054, doxorubicin, methotrexate and a combination of doxorubicin and methotrexate.
DOXO-EMCH was dissolved in sterile 10 mM sodium phosphate, 5% D-(+)-glucose (pH 5.8) and the respective dose administered intravenously within 30 minutes after dissolution. All doses of DOXO-EMCH and AW054 administered in the studies are stated in doxorubicin and methotrexate equivalents, respectively. Adrimedac® from medac, Germany, was used as the doxorubicin reference (c=2 mg/mL). Methotrexate (Sodium salt from medac) was used as a stock solution (12.5 mg methotrexate/mL in 5% D-Glucose from Braun, sterile). The stock solution AW054 for intravenous administration was 2.0 mg AW054/mL in 5% D-Glucose from Braun, sterile.
For in vivo testing in the MiaPaCa-2 xenograft model, female NMRI: nu/nu mice (Taconic, Denmark) were used. The mice were held in individually ventilaged cages (IVC) under sterile and standardized environmental conditions (25±2° C. room temperature, 50±10% relative humidity, 12 hour light-dark-rhythm). They received autoclaved food and bedding (ssniff, Soest, Germany) and acidified (pH 4.0) drinking water ad libitum. All animal experiments were performed under the auspices of the German Animal Protection Law.
MiaPaCa-2 cells (5×10^6 cells/mouse) were transplanted subcutaneously (s.c.) into the left flank region of each mouse on day zero. Mice were randomly distributed to the experimental groups (7 mice per group). Treatment was initiated at day 10 when the tumors were grown to a size of ˜60 mm^3. Mice were treated on a weekly schedule with 3×6 mg/kg doxorubicin (MTD), 2×125 mg/kg methotrexate (MTD), 3×24 mg/kg DOXO-EMCH (doxorubicin equivalents) (MTD), 3×20 mg/kg AW054 (methotrexate equivalents) (MTD), and a combination of 3×12 mg/kg DOXO-EMCH and 3×10 mg/kg AW054 or a combination of 3×3 mg/kg doxorubicin and 3×62.5 mg/kg methotrexate. All compounds were injected once a week for three weeks (days 10, 17, 24). The injection volume was 0.2 mU20 g body weight. Tumor size was measured twice weekly with a caliper-like instrument in two dimensions. Individual tumor volumes (V) were calculated by the formula V=(length×[width]^2)/2 and related to the values on the first day of treatment (relative tumor volume, RTV). The experiment was ended on day 43. Statistical analysis was performed with the U-test (Mann and Whitney) with p<0.05. The body weight of mice was determined every 3 to 4 days.
Combination therapy with doxorubicin and methotrexate was carried out at in a three weekly schedule (i.v.) at half of their maximum tolerated dose (MTD), i.e. 3×3 mg/kg for doxorubicin and 3×62.5 mg/kg methotrexate. Both DOXO-EMCH and AW054 were administered simultaneously (i.v.) in a three weekly schedule at half of their maximum tolerated dose (MTD), i.e. 3×12 mg/kg for DOXO-EMCH (doxorubicin equivalents) and 3×10 mg/kg (methotrexate equivalents) and at their respective MTDs, i.e. 3×24 mg/kg for DOXO-EMCH (doxorubicin equivalents) and 3×20 mg/kg for AW054 (methotrexate equivalents) (see the following Table 1).

[2] = system: several xenograft and orthotopic tumor models; conditions: cited from earlier work
[3] = system: ovarian carcinoma xenograft model (OVCAR3); conditions: cited from earlier work
[4] = conjugate formed with cysteine-34 of albumin; cited from earlier work

SMILES	antitumor efficacy (in words) [1]	Tumor volume (day 43) [1]	efficacy compared to free doxorubicin [2]	toxic death [1]	efficacy compared to methotrexate [3]	stability of albumin conjugate in human plasma [4]
COc1cccc2c1C(=O)c1c(O)c3c(c(O)c1C2=O)CC(O)(C(CO)=NNC(=O)CCCCCN1C(=O)C=CC1=O)CC3OC1CC(N)C(O)C(C)O1 (centres unmarked) [DOXO-EMCH, 6-maleimidocaproyl(hydrazone) derivative of doxorubicin]	partial remission	0.034 ± 0.064* cm^3	superior efficacy over free doxorubicin	–	–	–
COc1cccc2c1C(=O)c1c(O)c3c(c(O)c1C2=O)C[C@@](O)(C(=O)CO)C[C@@H]3O[C@H]1C[C@H](N)[C@H](O)[C@H](C)O1 [Doxorubicin, doxorubicin]	only showed moderate antitumor efficacy	0.190 ± 0.125* cm^3	–	0	–	–
C[C@@H](NC(=O)CCCCCN1C(=O)C=CC1=O)C(=O)N[C@@H](Cc1ccccc1)C(=O)N[C@@H](CCCCN)C(=O)N[C@@H](CCCCNC(=O)CC[C@H](NC(=O)c1ccc(N(C)Cc2cnc3nc(N)nc(N)c3n2)cc1)C(=O)O)C(=O)O [AW054, EMC-D-Ala-Phe-Lys-Lys(γ-MTX)-OH] ({Hexanoyl(6-maleimido)}-[dA]FKK([γGlu-DAMPA])-OH)	only showed moderate antitumor effects	0.264 ± 0.226* cm^3	–	0	superior compared to methotrexate	stable in human plasma
CN(Cc1cnc2nc(N)nc(N)c2n1)c1ccc(C(=O)N[C@@H](CCC(=O)O)C(=O)O)cc1 [Methotrexate, methotrexate]	only showed moderate antitumor efficacy	0.396 ± 0.307* cm^3	–	0	–	–
